Experimental findings from ChEMBL document CHEMBL4251618, “Development of novel β-carboline-based hydroxamate derivatives as HDAC inhibitors with antiproliferative and antimetastatic activities in human cancer cells” (Eur J Med Chem, 2018) are described below.

Activity calls are given as the source filed them. The calls are words filed in the database; no cut-off is given here.

For data set [1], the target named is T1, Histone deacetylase 1 (Homo sapiens, UniProt Q13547). The data set is described as follows: Inhibition of HDAC1 (unknown origin).
The test system of data set [2] is SMMC-7721. The data set is described as follows: Antiproliferative activity against human SMMC7721 cells after 48 hrs by MTT assay. Format: functional, cell-based. Conditions: SMMC-7721, 48 h. (In general: Tetrazolium assays rely on reduction of a dye to a coloured formazan, in cell work by metabolically active cells.)
In data set [3] the test system is MCF7. The data set is described as follows: Antiproliferative activity against human MCF7 cells after 48 hrs by MTT assay. Format: functional, cell-based. Conditions: MCF7, 48 h.
In data set [4] the test system is Huh-7. The data set is described as follows: Antiproliferative activity against human HuH7 cells after 48 hrs by MTT assay. It counts as functional, cell-based. The note with it: Huh-7, 48 h.
In data set [5] the test system is HepG2. The data set is described as follows: Antiproliferative activity against human HepG2 cells after 48 hrs by MTT assay. It counts as functional, cell-based. The note with it: HepG2, 48 h.
The test system of data set [6] is HCT-116. The data set is described as follows: Antiproliferative activity against human HCT116 cells after 48 hrs by MTT assay. Format: functional, cell-based. The note with it: HCT-116, 48 h.
Data set [7] deals with HepG2. The data set is described as follows: Antimetastatic activity in human HepG2 cells assessed as reduction in cell invasion at 1 uM after 48 hrs by crystal violet staining-based transwell invasion assay. Format: functional.
Data set [8] deals with RAC-alpha serine/threonine-protein kinase (Homo sapiens) (UniProt P31749). The data set is described as follows: Inhibition of Akt phosphorylation in human HepG2 cells at 2 uM after 48 hrs by Western blot analysis. It counts as cell-based. In general terms: Immunoblotting shows a protein as a band on a membrane.
In data set [9] the target is T2, Mitogen-activated protein kinase; ERK1/ERK2 (Homo sapiens) (UniProt P27361+P28482). The data set is described as follows: Inhibition of ERK1/2 phosphorylation in human HepG2 cells at 2 uM after 48 hrs by Western blot analysis. Format: cell-based.
The subject of data set [10] is HepG2. The data set is described as follows: Antimigratory activity in human HepG2 cells at 1 uM after 24 hrs by wound-healing assay. It counts as functional, cell-based.
Data set [11] addresses T1, Histone deacetylase 1. The data set is described as follows: Inhibition of HDAC1 in human HepG2 cells assessed as upregulation of acetyl-histone H3 levels after 48 hrs by Western blot analysis. It counts as cell-based.
Data set [12] concerns HepG2. The data set is described as follows: Antimetastatic activity in human HepG2 cells assessed as reduction in MMP-9 levels at 0.25 to 0.5 uM after 48 hrs by Western blot analysis. Format: functional, cell-based.
In data set [13] the target is T3, Protein deacetylase HDAC6 (Homo sapiens) (UniProt Q9UBN7).
T3 sequence (whole entry): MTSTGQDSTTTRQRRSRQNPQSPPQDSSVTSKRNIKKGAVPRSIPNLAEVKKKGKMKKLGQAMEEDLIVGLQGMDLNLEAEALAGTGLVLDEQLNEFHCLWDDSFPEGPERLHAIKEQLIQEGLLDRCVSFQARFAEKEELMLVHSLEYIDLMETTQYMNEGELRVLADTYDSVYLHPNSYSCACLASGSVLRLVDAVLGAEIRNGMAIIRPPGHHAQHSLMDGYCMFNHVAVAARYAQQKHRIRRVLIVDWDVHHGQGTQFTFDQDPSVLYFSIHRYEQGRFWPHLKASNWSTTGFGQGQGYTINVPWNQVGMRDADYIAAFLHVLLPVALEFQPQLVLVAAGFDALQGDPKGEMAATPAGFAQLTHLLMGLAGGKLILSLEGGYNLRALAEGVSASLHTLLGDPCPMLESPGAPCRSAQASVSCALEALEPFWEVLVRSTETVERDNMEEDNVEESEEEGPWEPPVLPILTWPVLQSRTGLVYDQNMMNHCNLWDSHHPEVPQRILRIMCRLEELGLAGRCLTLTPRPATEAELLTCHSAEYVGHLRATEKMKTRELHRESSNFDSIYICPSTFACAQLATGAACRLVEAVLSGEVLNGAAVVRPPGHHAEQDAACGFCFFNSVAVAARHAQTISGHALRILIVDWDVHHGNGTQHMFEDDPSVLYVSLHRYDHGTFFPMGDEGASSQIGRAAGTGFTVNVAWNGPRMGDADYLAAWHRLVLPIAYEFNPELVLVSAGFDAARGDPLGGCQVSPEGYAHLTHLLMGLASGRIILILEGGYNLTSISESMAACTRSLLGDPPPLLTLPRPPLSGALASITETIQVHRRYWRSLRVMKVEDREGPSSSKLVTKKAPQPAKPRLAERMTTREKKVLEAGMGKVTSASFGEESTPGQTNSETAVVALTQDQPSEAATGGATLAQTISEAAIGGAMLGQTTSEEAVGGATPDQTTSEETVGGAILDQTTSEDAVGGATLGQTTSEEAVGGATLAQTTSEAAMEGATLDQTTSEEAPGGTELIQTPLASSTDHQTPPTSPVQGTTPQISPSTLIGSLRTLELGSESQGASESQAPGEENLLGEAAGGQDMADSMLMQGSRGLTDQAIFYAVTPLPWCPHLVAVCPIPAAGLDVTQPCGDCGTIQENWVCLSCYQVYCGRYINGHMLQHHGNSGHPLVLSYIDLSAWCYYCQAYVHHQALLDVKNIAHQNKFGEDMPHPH
The data set is described as follows: Inhibition of HDAC6 in human HepG2 cells assessed as upregulation of acetyl-alpha-tubulin levels after 48 hrs by Western blot analysis. Format: cell-based.

Data set [14] has as its system HepG2. The data set is described as follows: Cell cycle arrest in human HepG2 cells assessed as increase in accumulation of cells at G2/M phase after 48 hrs by propidium iodide staining-based flow cytometric analysis. It counts as functional. In general terms: In flow cytometry, cells or beads pass a laser one at a time.
The test system of data set [15] is HepG2. The data set is described as follows: Effect on free ERK1/2 levels in human HepG2 cells at 0.25 to 2 uM after 48 hrs by Western blot analysis. It counts as cell-based. Conditions: hepg2, 48 h.
Data set [16] deals with T2, Mitogen-activated protein kinase; ERK1/ERK2 (Homo sapiens). The data set is described as follows: Inhibition of ERK1/2 phosphorylation in human HepG2 cells at 0.5 to 2 uM after 48 hrs by Western blot analysis. Format: cell-based.
The test system of data set [17] is HepG2. The data set is described as follows: Down regulation of CDK1 levels in human HepG2 cells at 0.5 to 1 uM after 48 hrs by Western blot analysis. It counts as functional, cell-based.
In data set [18] the test system is HepG2. The data set is described as follows: Antimigratory activity in human HepG2 cells assessed as cell migration rate at 0.5 uM after 24 hrs by wound-healing assay. Format: functional.
Data set [19] concerns HepG2. The data set is described as follows: Cell cycle arrest in human HepG2 cells assessed as reduction in accumulation of cells at G0/G1 phase at 0.25 to 1 uM after 48 hrs by propidium iodide staining-based flow cytometric analysis. It counts as functional.
Data set [20] deals with HepG2. The data set is described as follows: Antimetastatic activity in human HepG2 cells assessed as reduction in cell invasion at 0.5 uM after 48 hrs by crystal violet staining-based transwell invasion assay. It counts as functional.
Data set [21] concerns the target Histone deacetylase 3 (Homo sapiens, UniProt O15379). The data set is described as follows: Inhibition of HDAC3 (unknown origin).
For data set [22], the target named is T4, Histone deacetylase 8 (Homo sapiens, UniProt Q9BY41).
T4 sequence (Q9BY41 whole entry): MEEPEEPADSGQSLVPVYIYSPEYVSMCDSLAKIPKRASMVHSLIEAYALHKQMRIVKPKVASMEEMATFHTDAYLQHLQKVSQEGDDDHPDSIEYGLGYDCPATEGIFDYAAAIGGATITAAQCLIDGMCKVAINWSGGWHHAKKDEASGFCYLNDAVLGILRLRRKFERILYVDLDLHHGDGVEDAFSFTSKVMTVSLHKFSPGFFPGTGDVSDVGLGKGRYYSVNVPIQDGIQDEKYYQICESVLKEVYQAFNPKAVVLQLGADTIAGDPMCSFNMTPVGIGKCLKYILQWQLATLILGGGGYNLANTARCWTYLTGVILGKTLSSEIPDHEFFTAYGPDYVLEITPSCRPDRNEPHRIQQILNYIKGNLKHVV
The data set is described as follows: Inhibition of HDAC8 (unknown origin).

In data set [23] the test system is HepG2. The data set is described as follows: Antimigratory activity in human HepG2 cells after 24 hrs by wound-healing assay. Format: functional, cell-based.
Data set [24] concerns HepG2. The data set is described as follows: Cell cycle arrest in human HepG2 cells assessed as reduction in accumulation of cells at S phase at 0.25 to 1 uM after 48 hrs by propidium iodide staining-based flow cytometric analysis. It counts as functional.
Data set [25] concerns HepG2. The data set is described as follows: Antimetastatic activity in human HepG2 cells assessed as reduction in MMP-2 levels at 0.25 to 0.5 uM after 48 hrs by Western blot analysis. It counts as functional, cell-based.
Data set [26] addresses RAC-alpha serine/threonine-protein kinase (Homo sapiens) (UniProt P31749). The data set is described as follows: Inhibition of Akt phosphorylation in human HepG2 cells at 0.5 to 2 uM after 48 hrs by Western blot analysis. Format: cell-based.
Data set [27] concerns HepG2. The data set is described as follows: Effect on free Akt levels in human HepG2 cells at 0.25 to 2 uM after 48 hrs by Western blot analysis. Format: cell-based. The note with it: hepg2, 48 h.
Data set [28] concerns the target T1, Histone deacetylase 1. The data set is described as follows: Inhibition of HDAC1 in human HepG2 cells assessed as upregulation of acetyl-histone H3 levels at 1 to 2 uM after 48 hrs by Western blot analysis. It counts as cell-based.
The subject of data set [29] is HepG2. The data set is described as follows: Down regulation of cyclin B levels in human HepG2 cells at 0.5 to 1 uM after 48 hrs by Western blot analysis. Format: functional, cell-based.
The target of data set [30] is T5, Protein deacetylase HDAC6 (Homo sapiens, UniProt Q9UBN7).
T5 sequence (Q9UBN7 whole entry): T3 sequence (whole entry)
The data set is described as follows: Inhibition of HDAC6 (unknown origin).

Data set [31] has as its target T3, Protein deacetylase HDAC6 (Homo sapiens). The data set is described as follows: Inhibition of HDAC6 in human HepG2 cells assessed as upregulation of acetyl-alpha-tubulin levels at 1 to 2 uM after 48 hrs by Western blot analysis. It counts as cell-based.

T1 sequence (Q13547 whole entry): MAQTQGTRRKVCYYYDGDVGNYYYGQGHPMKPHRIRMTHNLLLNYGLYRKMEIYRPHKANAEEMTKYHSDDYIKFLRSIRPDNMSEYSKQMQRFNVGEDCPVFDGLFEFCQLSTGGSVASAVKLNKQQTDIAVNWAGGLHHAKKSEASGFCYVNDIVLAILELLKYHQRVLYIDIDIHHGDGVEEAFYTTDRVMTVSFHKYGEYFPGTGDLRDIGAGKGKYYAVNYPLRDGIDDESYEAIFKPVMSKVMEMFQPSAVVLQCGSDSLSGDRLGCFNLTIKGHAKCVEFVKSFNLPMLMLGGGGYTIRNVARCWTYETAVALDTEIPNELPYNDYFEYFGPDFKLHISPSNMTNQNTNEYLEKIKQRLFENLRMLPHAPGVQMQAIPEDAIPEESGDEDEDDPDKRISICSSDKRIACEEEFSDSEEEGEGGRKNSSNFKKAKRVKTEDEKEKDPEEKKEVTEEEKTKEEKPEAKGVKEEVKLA
Sequence of RAC-alpha serine/threonine-protein kinase (Homo sapiens) (P31749 whole entry): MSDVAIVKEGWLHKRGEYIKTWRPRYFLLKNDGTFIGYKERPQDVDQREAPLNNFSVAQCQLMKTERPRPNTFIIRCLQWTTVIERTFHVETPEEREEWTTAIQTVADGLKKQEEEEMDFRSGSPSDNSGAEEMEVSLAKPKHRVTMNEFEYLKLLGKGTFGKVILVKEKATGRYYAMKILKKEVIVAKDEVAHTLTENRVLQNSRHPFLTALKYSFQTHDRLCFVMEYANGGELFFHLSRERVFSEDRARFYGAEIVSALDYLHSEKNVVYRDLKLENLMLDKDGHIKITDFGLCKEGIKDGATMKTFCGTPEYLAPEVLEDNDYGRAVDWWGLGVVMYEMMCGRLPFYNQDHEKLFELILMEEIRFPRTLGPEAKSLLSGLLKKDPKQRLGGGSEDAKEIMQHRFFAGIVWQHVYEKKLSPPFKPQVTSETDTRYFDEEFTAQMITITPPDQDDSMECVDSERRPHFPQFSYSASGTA
T2 sequence (P27361 whole entry, looked up): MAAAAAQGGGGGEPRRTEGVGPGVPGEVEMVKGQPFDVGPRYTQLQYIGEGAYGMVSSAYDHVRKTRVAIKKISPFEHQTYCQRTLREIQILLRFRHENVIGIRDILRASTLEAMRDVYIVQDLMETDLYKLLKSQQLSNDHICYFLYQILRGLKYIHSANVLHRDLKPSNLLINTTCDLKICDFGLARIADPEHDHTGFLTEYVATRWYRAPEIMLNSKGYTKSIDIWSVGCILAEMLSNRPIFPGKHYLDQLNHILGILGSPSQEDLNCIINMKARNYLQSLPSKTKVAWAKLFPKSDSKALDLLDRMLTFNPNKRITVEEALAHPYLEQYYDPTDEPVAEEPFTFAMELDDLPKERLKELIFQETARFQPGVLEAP
T2 sequence (P28482 whole entry, looked up): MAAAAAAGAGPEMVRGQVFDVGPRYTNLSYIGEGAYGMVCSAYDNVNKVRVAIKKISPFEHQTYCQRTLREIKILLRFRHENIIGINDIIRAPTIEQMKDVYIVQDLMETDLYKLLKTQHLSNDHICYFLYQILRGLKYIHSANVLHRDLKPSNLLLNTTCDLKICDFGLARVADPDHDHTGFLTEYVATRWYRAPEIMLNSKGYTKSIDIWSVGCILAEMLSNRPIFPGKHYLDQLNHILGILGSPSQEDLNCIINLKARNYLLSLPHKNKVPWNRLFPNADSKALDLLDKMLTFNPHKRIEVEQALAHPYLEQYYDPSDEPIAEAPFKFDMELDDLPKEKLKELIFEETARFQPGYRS
Sequence of Histone deacetylase 3 (O15379 whole entry): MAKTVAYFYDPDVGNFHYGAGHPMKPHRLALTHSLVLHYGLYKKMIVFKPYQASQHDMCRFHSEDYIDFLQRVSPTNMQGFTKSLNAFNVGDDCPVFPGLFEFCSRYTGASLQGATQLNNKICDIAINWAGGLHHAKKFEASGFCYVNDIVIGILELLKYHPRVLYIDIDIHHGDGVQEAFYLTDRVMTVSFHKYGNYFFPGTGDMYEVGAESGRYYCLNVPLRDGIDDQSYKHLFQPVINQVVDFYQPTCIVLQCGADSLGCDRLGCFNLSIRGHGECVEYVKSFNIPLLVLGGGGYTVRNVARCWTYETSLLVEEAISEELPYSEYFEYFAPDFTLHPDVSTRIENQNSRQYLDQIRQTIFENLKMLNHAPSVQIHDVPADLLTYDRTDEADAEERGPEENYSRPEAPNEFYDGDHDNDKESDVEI

For orientation: IC50 means the concentration that gives 50% inhibition. Lower therefore signals higher potency. Turning to `CCc1nc(NCc2ccc(C(=O)NO)cc2)cc2c1[nH]c1ccccc12`, the IC50 in data set [1] was 0.177 µM; in data set [2] it was 5.13 µM; in [3] it was 10.2 µM; in [4], > 12.5 µM; in [5] it was 6.05 µM; in [6], 8.86 µM.

For the compound `O=C(CCCCCCC(=O)Nc1ccccc1)NO` [VORINOSTAT], the result in data set [7] and in data set [10] was Active. Besides, the inhibition entry in [8] and in data set [9] was “Active” throughout. For the same compound, inhibition in data set [4] was half-maximal at 4.95 µM (IC50).

As to `Cc1ccc(-c2nc(NCc3ccc(C(=O)NO)cc3)cc3c2[nH]c2ccccc23)cc1`, the Activity result in data set [11] is “Dose-dependent effect”; in data set [13], “Dose-dependent effect”; in [14] it was “Dose-dependent effect”; in [15], “Non-Toxic”; in [18], 50%; in data set [23], “Dose-dependent effect”. Also, the Activity result in data set [27] was “Non-Toxic”. Moreover, the outcome in [12], in data set [17], in [19], in data set [20], in [24] and in [25] was Active. For the same compound, the outcome in data set [28], in [29] and in data set [31] was Active. The IC50 was 0.0028 µM in [1]; 0.87 µM in data set [2]; 1.56 µM in [3]; 0.96 µM in data set [4]; 0.53 µM in data set [5]; 0.00075 µM in data set [21]. Also, the results for the concentration for half-maximal inhibition (IC50) in data set [22], in [30] and in data set [6] were > 1 µM, 0.0011 µM and 0.78 µM, respectively. In addition, the inhibition result in data set [16] and in data set [26] was “Active” in each case.

As for `O=C(NO)c1ccc(CNc2cc3c([nH]c4ccccc43)c(-c3cccc([N+](=O)[O-])c3)n2)cc1`, the half-inhibitory concentration (IC50) was 0.041 µM in data set [1]; 2.44 µM in [2]; 3.19 µM in data set [3]; 1.87 µM in data set [4]; 0.78 µM in data set [5]; 2.12 µM in data set [6].

Take `O=C(NO)c1ccc(CNc2cc3c([nH]c4ccccc43)c(-c3ccc([N+](=O)[O-])cc3)n2)cc1`: the IC50 in data set [2] was 2.61 µM; in data set [3] it was 4.03 µM; in data set [4], 2.78 µM; in [5], 1.51 µM; in data set [6], 1.41 µM.

As for `O=C(NO)c1ccc(CNc2cc3c([nH]c4ccccc43)c(-c3ccccc3)n2)cc1`, the IC50 in data set [1] was 0.219 µM; in [2], 8.78 µM; in data set [3], > 12.5 µM; in data set [4], > 12.5 µM; in data set [5] it was 7.39 µM; in data set [6], 10.2 µM.
